Literature values as cited in patent publication US8084444B2, “Treatment of dermatitis with dehydroepiandrosterone-glucocorticoid combinations” (RxDino, LLC, priority 2004, dated 2011).

Details: equivalent in glucocorticoid potency

**Q.** For `C[C@]12CCC(=O)C=C1CC[C@@H]1[C@@H]2C(=O)C[C@@]2(C)[C@H]1CC[C@]2(O)C(=O)CO` [Cortisone], which “Approximate Glucocorticoid Dose Equivalent” value is on record?
**A.** The value was about 25 mg.

**Q.** With `C[C@]12CCC(=O)C=C1CC[C@@H]1[C@@H]2[C@@H](O)C[C@@]2(C)[C@H]1CC[C@]2(O)C(=O)CO` [Hydrocortisone] as the molecule, how does the “Approximate Glucocorticoid Dose Equivalent” value read?
**A.** The value was about 20 mg.

**Q.** For `C[C@]12C=CC(=O)C=C1CC[C@@H]1[C@@H]2[C@@H](O)C[C@@]2(C)[C@H]1CC[C@]2(O)C(=O)CO` [Prednisolone], which “Approximate Glucocorticoid Dose Equivalent” value is on record?
**A.** Its value is about 5 mg.

**Q.** For `C[C@]12C=CC(=O)C=C1CC[C@H]1[C@@H]3C[C@@H](O)[C@](O)(C(=O)CO)[C@@]3(C)C[C@H](O)[C@@]12F` [Triamcinolone], which “Approximate Glucocorticoid Dose Equivalent” value is on record?
**A.** The value was about 0.8 mg.
